Here are results for 3 molecules from PMC4457528, “Identification of Novel Small Molecule Inhibitors of Oncogenic RET Kinase” (PLoS ONE, 2015).

What all share (assay): KinomeScan kinase panel, single concentration 10 µM
Assay type in all cases: binding

The target of test [1] is T1, KinomeScan kinase panel (Homo sapiens, UniProt P06239).
T1 construct: purchased DiscoveRx (KinomeScan)
Particulars: LCK, 10 µM; read-out: score (%).

For test [2], the target named is T2, KinomeScan kinase panel (Homo sapiens, UniProt Q00537).
T2 construct: purchased DiscoveRx (KinomeScan)
To be noted: PCTK2, 10 µM; read-out: score (%).

In test [3] the target is T3, KinomeScan kinase panel (Homo sapiens, UniProt P48736).
T3 construct: purchased DiscoveRx (KinomeScan)
Particulars: PIK3CG, 10 µM; read-out: score (%).

In test [4] the target is T4, KinomeScan kinase panel (Homo sapiens, UniProt O43353).
T4 construct: purchased DiscoveRx (KinomeScan)
Particulars: read-out: score (%).

Test [5] concerns the target T5, KinomeScan kinase panel (Homo sapiens, UniProt Q9Y616).
T5 construct: purchased DiscoveRx (KinomeScan)
T5 sequence (Q9Y616 1-596): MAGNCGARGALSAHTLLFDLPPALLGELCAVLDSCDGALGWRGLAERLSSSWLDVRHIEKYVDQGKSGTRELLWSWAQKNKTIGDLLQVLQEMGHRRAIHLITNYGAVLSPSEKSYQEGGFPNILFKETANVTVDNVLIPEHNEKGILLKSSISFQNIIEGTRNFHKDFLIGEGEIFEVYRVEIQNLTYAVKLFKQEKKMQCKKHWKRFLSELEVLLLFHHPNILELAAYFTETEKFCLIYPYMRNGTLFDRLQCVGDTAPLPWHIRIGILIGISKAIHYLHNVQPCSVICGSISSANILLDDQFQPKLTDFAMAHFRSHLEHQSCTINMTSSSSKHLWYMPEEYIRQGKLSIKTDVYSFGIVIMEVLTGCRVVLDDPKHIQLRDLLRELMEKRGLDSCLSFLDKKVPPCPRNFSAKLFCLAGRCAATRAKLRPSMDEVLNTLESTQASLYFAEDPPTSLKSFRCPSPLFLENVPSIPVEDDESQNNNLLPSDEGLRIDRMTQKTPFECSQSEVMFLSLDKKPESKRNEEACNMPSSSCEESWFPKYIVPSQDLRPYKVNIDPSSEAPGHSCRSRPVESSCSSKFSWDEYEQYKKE
To be noted: IRAK3, 10 µM; read-out: score (%).

Test [6] deals with T6, KinomeScan kinase panel (Homo sapiens, UniProt O14730).
T6 construct: purchased DiscoveRx (KinomeScan)
T6 sequence (O14730 1-519): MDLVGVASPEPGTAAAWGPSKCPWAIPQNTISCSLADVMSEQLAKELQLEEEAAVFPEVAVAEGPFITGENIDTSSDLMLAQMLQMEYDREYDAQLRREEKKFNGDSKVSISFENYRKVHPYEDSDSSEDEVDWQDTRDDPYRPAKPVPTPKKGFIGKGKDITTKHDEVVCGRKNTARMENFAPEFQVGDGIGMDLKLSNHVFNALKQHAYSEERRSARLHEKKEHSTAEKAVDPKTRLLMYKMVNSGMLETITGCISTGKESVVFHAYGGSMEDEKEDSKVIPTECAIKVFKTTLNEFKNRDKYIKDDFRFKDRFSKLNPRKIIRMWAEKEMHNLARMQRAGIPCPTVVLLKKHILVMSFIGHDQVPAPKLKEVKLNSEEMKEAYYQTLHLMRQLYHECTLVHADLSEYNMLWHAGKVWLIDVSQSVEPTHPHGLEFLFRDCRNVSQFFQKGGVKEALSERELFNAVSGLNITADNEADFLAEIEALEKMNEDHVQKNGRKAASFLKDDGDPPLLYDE
To be noted: read-out: score (%).

Test [7] addresses T7, KinomeScan kinase panel (Homo sapiens, UniProt Q8N568).
T7 construct: purchased DiscoveRx (KinomeScan)
To be noted: DCAMKL2, 10 µM; read-out: score (%).

Test [8] addresses T8, KinomeScan kinase panel (Homo sapiens, UniProt Q8TD19).
T8 construct: purchased DiscoveRx (KinomeScan)
T8 sequence (Q8TD19 1-979): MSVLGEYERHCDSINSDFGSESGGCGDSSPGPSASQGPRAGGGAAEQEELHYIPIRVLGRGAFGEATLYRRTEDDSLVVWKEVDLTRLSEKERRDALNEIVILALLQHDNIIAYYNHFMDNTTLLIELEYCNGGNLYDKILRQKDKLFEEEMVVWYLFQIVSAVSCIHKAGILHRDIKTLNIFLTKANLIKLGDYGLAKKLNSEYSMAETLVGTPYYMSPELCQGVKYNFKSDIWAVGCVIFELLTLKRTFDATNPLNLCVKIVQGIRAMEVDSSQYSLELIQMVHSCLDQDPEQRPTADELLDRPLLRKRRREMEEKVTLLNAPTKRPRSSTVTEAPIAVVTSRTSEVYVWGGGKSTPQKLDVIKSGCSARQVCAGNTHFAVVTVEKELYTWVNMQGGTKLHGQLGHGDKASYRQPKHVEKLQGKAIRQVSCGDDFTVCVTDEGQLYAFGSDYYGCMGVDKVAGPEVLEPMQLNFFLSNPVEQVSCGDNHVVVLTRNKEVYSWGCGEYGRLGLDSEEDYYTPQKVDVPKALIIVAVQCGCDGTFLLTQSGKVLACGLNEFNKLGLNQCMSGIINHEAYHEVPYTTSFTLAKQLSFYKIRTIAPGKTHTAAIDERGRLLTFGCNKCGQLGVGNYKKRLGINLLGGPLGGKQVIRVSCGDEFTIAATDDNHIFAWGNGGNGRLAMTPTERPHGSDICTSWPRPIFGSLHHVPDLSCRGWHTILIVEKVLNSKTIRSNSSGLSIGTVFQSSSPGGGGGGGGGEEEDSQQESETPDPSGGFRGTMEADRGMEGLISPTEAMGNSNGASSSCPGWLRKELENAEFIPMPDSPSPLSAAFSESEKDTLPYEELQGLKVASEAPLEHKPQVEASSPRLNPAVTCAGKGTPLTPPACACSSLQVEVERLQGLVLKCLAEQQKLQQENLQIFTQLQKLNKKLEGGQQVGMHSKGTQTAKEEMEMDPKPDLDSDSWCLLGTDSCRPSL
To be noted: NEK9, 10 µM; read-out: score (%).

Test [9] concerns the target T9, KinomeScan kinase panel (Homo sapiens, UniProt Q16584).
T9 construct: purchased DiscoveRx (KinomeScan)
To be noted: MLK3, 10 µM.

Test [10] has as its target T10, KinomeScan kinase panel (Homo sapiens, UniProt P42336).
T10 construct: purchased DiscoveRx (KinomeScan)
To be noted: PIK3CA, 10 µM; read-out: score (%).

Where two headings read alike, the source gives them in different places.

T9 sequence (Q16584 whole entry): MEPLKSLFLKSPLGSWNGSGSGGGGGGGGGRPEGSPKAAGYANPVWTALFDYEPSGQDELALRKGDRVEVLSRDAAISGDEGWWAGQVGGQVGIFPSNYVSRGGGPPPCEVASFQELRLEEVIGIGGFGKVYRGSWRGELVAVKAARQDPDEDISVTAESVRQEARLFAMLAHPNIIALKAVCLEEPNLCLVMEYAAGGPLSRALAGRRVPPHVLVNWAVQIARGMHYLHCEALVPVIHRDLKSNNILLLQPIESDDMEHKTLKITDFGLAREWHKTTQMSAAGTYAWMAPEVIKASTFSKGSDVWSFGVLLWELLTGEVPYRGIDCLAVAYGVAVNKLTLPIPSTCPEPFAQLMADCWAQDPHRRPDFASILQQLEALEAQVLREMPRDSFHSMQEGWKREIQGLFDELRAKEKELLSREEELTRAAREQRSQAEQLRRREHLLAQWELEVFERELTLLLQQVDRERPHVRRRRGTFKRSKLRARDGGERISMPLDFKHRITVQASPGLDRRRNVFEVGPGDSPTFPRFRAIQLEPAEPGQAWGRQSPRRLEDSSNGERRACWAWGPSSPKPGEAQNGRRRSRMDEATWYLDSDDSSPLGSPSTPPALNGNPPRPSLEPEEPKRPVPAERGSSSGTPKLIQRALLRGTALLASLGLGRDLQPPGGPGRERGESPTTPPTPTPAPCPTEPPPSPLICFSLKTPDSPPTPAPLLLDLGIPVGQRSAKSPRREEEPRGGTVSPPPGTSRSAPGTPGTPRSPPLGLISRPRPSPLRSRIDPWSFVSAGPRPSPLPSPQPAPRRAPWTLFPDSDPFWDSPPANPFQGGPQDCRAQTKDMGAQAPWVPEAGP
T2 sequence (Q00537 whole entry): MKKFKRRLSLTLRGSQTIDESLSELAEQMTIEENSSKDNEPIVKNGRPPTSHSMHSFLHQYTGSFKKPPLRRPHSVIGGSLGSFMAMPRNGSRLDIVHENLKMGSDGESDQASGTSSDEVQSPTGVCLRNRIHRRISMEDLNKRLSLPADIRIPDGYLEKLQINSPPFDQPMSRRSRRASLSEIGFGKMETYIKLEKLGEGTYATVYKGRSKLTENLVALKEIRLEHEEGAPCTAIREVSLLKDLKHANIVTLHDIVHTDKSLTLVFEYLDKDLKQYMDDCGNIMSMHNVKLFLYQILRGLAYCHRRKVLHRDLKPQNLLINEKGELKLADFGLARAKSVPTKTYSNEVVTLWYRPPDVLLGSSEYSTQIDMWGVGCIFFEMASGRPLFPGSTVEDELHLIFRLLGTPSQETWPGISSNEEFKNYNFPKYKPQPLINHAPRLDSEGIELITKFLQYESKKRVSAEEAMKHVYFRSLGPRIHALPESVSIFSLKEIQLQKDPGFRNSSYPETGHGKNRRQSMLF
T7 sequence (Q8N568 whole entry): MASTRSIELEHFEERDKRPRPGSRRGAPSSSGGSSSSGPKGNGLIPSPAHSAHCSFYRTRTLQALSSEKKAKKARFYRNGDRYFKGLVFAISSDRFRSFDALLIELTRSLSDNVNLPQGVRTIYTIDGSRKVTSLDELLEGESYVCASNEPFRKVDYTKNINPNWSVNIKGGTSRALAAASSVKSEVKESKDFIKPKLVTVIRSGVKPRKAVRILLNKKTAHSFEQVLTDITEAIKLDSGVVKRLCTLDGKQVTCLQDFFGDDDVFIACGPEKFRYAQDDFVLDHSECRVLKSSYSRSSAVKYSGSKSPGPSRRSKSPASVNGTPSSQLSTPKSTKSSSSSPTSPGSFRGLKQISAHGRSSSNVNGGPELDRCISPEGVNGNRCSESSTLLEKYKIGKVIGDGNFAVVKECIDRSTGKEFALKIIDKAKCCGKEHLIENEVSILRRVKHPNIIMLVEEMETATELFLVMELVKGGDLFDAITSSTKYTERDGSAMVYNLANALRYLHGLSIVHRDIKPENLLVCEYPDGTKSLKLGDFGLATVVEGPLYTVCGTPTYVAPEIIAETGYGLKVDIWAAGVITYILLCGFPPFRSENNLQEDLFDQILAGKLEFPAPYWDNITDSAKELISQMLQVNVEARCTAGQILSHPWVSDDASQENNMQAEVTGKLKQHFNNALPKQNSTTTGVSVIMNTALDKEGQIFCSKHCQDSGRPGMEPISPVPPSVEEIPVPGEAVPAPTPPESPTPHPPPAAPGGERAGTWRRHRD
T1 sequence (P06239 whole entry): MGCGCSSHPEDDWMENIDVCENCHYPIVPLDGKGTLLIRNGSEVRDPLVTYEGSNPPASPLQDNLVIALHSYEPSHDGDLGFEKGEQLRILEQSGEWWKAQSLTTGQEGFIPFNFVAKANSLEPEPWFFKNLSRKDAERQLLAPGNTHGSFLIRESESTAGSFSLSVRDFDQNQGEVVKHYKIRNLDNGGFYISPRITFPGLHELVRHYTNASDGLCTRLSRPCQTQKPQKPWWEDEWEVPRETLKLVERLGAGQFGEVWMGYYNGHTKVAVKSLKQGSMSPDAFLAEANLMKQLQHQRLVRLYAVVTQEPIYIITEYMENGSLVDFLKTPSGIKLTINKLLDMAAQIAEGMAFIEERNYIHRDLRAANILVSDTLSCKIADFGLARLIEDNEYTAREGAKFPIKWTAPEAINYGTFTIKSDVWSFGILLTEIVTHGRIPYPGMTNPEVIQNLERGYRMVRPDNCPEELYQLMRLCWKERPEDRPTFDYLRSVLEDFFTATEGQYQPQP
T3 sequence (P48736 whole entry): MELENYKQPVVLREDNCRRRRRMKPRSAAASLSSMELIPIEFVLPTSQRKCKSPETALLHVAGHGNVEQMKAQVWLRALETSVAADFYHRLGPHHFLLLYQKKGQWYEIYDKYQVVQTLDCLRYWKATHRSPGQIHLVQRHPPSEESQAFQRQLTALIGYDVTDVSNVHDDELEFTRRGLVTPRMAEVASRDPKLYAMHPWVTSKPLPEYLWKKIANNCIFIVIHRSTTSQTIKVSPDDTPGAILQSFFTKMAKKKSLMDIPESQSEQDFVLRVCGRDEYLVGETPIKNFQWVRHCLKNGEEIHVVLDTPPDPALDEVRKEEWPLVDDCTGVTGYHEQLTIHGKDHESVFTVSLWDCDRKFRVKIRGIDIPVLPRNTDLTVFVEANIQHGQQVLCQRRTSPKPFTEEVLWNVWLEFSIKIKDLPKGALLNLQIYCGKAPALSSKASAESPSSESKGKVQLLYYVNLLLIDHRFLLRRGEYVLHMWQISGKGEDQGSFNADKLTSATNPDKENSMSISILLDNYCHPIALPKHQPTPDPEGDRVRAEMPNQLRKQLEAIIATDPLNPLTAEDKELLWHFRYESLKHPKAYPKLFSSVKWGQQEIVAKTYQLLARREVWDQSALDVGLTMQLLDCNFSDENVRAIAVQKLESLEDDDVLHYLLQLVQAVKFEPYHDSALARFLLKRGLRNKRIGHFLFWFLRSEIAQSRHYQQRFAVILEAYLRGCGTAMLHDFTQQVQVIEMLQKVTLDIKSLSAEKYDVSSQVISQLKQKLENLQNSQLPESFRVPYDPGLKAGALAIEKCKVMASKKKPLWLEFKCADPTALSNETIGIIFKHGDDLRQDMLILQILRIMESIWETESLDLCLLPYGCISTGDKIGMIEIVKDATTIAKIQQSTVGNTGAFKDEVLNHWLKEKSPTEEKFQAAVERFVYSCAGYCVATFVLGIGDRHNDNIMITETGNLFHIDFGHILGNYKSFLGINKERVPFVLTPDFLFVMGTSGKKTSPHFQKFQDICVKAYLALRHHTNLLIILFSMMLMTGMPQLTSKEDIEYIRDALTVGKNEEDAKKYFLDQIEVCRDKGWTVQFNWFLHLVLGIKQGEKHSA
T10 sequence (P42336 whole entry): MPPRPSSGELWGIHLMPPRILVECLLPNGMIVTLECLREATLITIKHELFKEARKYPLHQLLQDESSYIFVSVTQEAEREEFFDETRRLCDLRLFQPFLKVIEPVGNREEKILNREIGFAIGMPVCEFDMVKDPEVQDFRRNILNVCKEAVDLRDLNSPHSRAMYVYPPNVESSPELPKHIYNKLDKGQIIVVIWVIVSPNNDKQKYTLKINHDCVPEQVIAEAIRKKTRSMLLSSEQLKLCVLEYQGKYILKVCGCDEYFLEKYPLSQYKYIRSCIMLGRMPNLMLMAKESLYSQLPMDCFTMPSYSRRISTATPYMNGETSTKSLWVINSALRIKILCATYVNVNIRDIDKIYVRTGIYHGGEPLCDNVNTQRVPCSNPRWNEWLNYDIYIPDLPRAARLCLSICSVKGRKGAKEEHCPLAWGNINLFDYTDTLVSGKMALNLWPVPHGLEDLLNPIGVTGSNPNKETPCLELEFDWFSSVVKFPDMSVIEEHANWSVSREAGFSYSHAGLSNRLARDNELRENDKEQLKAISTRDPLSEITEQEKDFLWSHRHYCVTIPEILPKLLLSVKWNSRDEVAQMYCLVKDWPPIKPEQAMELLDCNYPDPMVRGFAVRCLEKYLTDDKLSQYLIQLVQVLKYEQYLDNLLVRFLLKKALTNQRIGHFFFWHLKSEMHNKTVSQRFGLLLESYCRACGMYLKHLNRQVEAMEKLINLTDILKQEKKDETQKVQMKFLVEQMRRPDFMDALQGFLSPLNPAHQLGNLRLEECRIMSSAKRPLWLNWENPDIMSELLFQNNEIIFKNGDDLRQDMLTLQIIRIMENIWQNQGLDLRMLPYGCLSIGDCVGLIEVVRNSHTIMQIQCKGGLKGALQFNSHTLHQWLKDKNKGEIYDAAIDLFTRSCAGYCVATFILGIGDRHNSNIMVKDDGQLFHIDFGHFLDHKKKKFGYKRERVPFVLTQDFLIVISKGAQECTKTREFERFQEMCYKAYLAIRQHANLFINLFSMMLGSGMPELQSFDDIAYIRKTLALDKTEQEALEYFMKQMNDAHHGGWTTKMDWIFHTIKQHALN

Regarding `CCN1CCN(Cc2ccc(NC(=O)c3ccc(C)c(NC(=O)c4cncc(-c5cccs5)c4)c3)cc2C(F)(F)F)CC1` [ALW-II-41-27], the remaining binding at 10 µM at KinomeScan kinase panel [1] was 0.2%; on KinomeScan kinase panel [2], more than 30%; at KinomeScan kinase panel [3] it was more than 30%; at KinomeScan kinase panel [4] (RIPK2, 10 µM), 3.1%; at KinomeScan kinase panel [5], more than 30%; at KinomeScan kinase panel [6] (RIOK3, 10 µM) it was more than 30%. Also, the remaining binding at 10 µM on KinomeScan kinase panel [7], at KinomeScan kinase panel [8] and on KinomeScan kinase panel [10] was more than 30% in each case. The “score (%)” value on KinomeScan kinase panel [9] is “nb (Hits values higher than 30% were considered negative (no binding: nb))”.
As for `CCN1CCN(Cc2ccc(NC(=O)c3ccc(C)c(/C=C/c4cnc5[nH]ccc5c4Cl)c3)cc2C(F)(F)F)CC1` [HG-6-63-01, (E)-3-(2-(4-chloro-1H-pyrrolo[2,3-b]pyridin-5-yl)vinyl)-N-(4-((4-ethylpiperazin-1-yl)methyl)-3-(trifluoromethyl)phenyl)-4-methylbenzamide], the remaining binding at 10 µM was 0.1% on KinomeScan kinase panel [1]; more than 30% at KinomeScan kinase panel [2]; more than 30% on KinomeScan kinase panel [3]; 1.6% at KinomeScan kinase panel [4] (RIPK2, 10 µM); more than 30% at KinomeScan kinase panel [5]; 0.35% on KinomeScan kinase panel [6] (RIOK3, 10 µM). Further, the remaining binding at 10 µM on KinomeScan kinase panel [7] was more than 30%; at KinomeScan kinase panel [8], 28%; on KinomeScan kinase panel [10], more than 30%. In addition, on KinomeScan kinase panel [9], the “score (%)” value worked out at 0.8%.
`CCN1CCN(Cc2ccc(NC(=O)c3ccc(C)c(C#Cc4cccnc4)c3)cc2C(F)(F)F)CC1` [XMD15-44]: the remaining binding at 10 µM on KinomeScan kinase panel [1] was 0.05%; at KinomeScan kinase panel [2], 8.2%; at KinomeScan kinase panel [3], 100%; at KinomeScan kinase panel [4] (kinase RIPK2, 10 µM) it was 0.45%; at KinomeScan kinase panel [5] it was more than 30%; at KinomeScan kinase panel [6] (kinase RIOK3, 10 µM) it was 70%. Moreover, the remaining binding at 10 µM at KinomeScan kinase panel [7] was more than 30%; at KinomeScan kinase panel [8] it was 41%; on KinomeScan kinase panel [10], 100%. In addition, at KinomeScan kinase panel [9], the “score (%)” value is reported as 17%.
